Key:
Experiment in all cases: relative viability (nuclei count vs DMSO), 5 days (fraction); higher = more cells survive
Tozasertib + OSI-027 = compound: Cc1cc(Nc2cc(N3CCN(C)CC3)nc(Sc3ccc(NC(=O)C4CC4)cc3)n2)n[nH]1 [Tozasertib] + COc1cccc2cc(-c3nc([C@H]4CC[C@H](C(=O)O)CC4)n4ncnc(N)c34)[nH]c12 [OSI-027] (partner 0.5 µM)
In short: (§1)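 Each reported value is a median over duplicate plates. It expresses relative viability: treated-well nuclei count divided by vehicle-well nuclei count. Lung cancer cell lines in 1536-well plates were dosed by pin tool a day after seeding, alone with one drug or with a fixed anchor-drug dose plus five library-drug doses (not always all listed) in √10 steps, and nuclei were counted after 5 days.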

Tozasertib + Foretinib = compound: Cc1cc(Nc2cc(N3CCN(C)CC3)nc(Sc3ccc(NC(=O)C4CC4)cc3)n2)n[nH]1 [Tozasertib] + COc1cc2c(Oc3ccc(NC(=O)C4(C(=O)Nc5ccc(F)cc5)CC4)cc3F)ccnc2cc1OCCCN1CCOCC1 [Foretinib] (partner 0.25 µM)
In short: as §1

Tozasertib + Vorinostat = compound: Cc1cc(Nc2cc(N3CCN(C)CC3)nc(Sc3ccc(NC(=O)C4CC4)cc3)n2)n[nH]1 [Tozasertib] + O=C(CCCCCCC(=O)Nc1ccccc1)NO [Vorinostat] (partner 1 µM)
In short: as §1

Tozasertib + Linsitinib = compound: Cc1cc(Nc2cc(N3CCN(C)CC3)nc(Sc3ccc(NC(=O)C4CC4)cc3)n2)n[nH]1 [Tozasertib] + C[C@]1(O)C[C@@H](c2nc(-c3ccc4ccc(-c5ccccc5)nc4c3)c3c(N)nccn32)C1 [Linsitinib] (partner 1 µM)
In short: as §1

Tozasertib + Bortezomib = compound: Cc1cc(Nc2cc(N3CCN(C)CC3)nc(Sc3ccc(NC(=O)C4CC4)cc3)n2)n[nH]1 [Tozasertib] + CC(C)C[C@H](NC(=O)[C@H](Cc1ccccc1)NC(=O)c1cnccn1)B(O)O [Bortezomib] (partner 0.002 µM)
In short: as §1

Cell Line: LC-2-ad
- relative viability (Tozasertib + OSI-027; first compound 0.004 µM): 0.941
- relative viability (Tozasertib + OSI-027; first compound 0.01265 µM): 0.692
- relative viability (Tozasertib + OSI-027; first compound 0.04 µM): 0.734
- relative viability (Tozasertib + OSI-027; first compound 0.1265 µM): 0.374
- relative viability (Tozasertib + Foretinib; first compound 0.004 µM): 0.812
- relative viability (Tozasertib + Foretinib; first compound 0.04 µM): 1.04
- relative viability (Tozasertib + Foretinib; first compound 0.1265 µM): 0.609
- relative viability (Tozasertib + Vorinostat; first compound 0.004 µM): 0.762
- relative viability (Tozasertib + Vorinostat; first compound 0.01265 µM): 0.631
- relative viability (Tozasertib + Vorinostat; first compound 0.04 µM): 0.613
- relative viability (Tozasertib + Vorinostat; first compound 0.1265 µM): 0.272
- relative viability (Tozasertib + Linsitinib; first compound 0.004 µM): 0.906
- relative viability (Tozasertib + Linsitinib; first compound 0.01265 µM): 0.82
- relative viability (Tozasertib + Linsitinib; first compound 0.04 µM): 0.684
- relative viability (Tozasertib + Linsitinib; first compound 0.1265 µM): 0.329
- relative viability (Tozasertib + Bortezomib; first compound 0.004 µM): 0.949
- relative viability (Tozasertib + Bortezomib; first compound 0.01265 µM): 0.978
- relative viability (Tozasertib + Bortezomib; first compound 0.04 µM): 1.04
- relative viability (Tozasertib + Bortezomib; first compound 0.1265 µM): 0.427

Cell Line: RERF-LC-KJ
- relative viability (Tozasertib + OSI-027; first compound 0.01265 µM): 0.597
- relative viability (Tozasertib + OSI-027; first compound 0.04 µM): 0.59
- relative viability (Tozasertib + OSI-027; first compound 0.1265 µM): 0.484
- relative viability (Tozasertib + Foretinib; first compound 0.004 µM): 0.795
- relative viability (Tozasertib + Foretinib; first compound 0.01265 µM): 0.831
- relative viability (Tozasertib + Foretinib; first compound 0.04 µM): 0.957
- relative viability (Tozasertib + Vorinostat; first compound 0.01265 µM): 0.519
- relative viability (Tozasertib + Vorinostat; first compound 0.04 µM): 0.654
- relative viability (Tozasertib + Vorinostat; first compound 0.1265 µM): 0.478
- relative viability (Tozasertib + Linsitinib; first compound 0.004 µM): 0.876
- relative viability (Tozasertib + Linsitinib; first compound 0.01265 µM): 0.861
- relative viability (Tozasertib + Linsitinib; first compound 0.04 µM): 0.907
- relative viability (Tozasertib + Linsitinib; first compound 0.1265 µM): 0.777
- relative viability (Tozasertib + Bortezomib; first compound 0.004 µM): 0.983
- relative viability (Tozasertib + Bortezomib; first compound 0.01265 µM): 1.11
- relative viability (Tozasertib + Bortezomib; first compound 0.04 µM): 1.12
- relative viability (Tozasertib + Bortezomib; first compound 0.1265 µM): 0.96

Cell Line: H3255
- relative viability (Tozasertib + OSI-027; first compound 0.004 µM): 0.452
- relative viability (Tozasertib + OSI-027; first compound 0.01265 µM): 0.492
- relative viability (Tozasertib + OSI-027; first compound 0.04 µM): 0.61
- relative viability (Tozasertib + OSI-027; first compound 0.1265 µM): 0.459
- relative viability (Tozasertib + Foretinib; first compound 0.004 µM): 1.43
- relative viability (Tozasertib + Foretinib; first compound 0.01265 µM): 0.698
- relative viability (Tozasertib + Foretinib; first compound 0.04 µM): 0.868
- relative viability (Tozasertib + Foretinib; first compound 0.1265 µM): 0.706
- relative viability (Tozasertib + Vorinostat; first compound 0.004 µM): 0.86
- relative viability (Tozasertib + Vorinostat; first compound 0.01265 µM): 0.676
- relative viability (Tozasertib + Vorinostat; first compound 0.1265 µM): 0.712
- relative viability (Tozasertib + Linsitinib; first compound 0.004 µM): 0.862
- relative viability (Tozasertib + Linsitinib; first compound 0.01265 µM): 0.758
- relative viability (Tozasertib + Linsitinib; first compound 0.04 µM): 1.04
- relative viability (Tozasertib + Linsitinib; first compound 0.1265 µM): 0.817
- relative viability (Tozasertib + Bortezomib; first compound 0.004 µM): 0.789
- relative viability (Tozasertib + Bortezomib; first compound 0.01265 µM): 0.7
- relative viability (Tozasertib + Bortezomib; first compound 0.04 µM): 0.823
- relative viability (Tozasertib + Bortezomib; first compound 0.1265 µM): 0.549

Cell Line: NCI-H650
- relative viability (Tozasertib + OSI-027; first compound 0.004 µM): 0.549
- relative viability (Tozasertib + OSI-027; first compound 0.01265 µM): 0.512
- relative viability (Tozasertib + OSI-027; first compound 0.04 µM): 0.535
- relative viability (Tozasertib + OSI-027; first compound 0.1265 µM): 0.452
- relative viability (Tozasertib + Foretinib; first compound 0.004 µM): 1.14
- relative viability (Tozasertib + Foretinib; first compound 0.04 µM): 1.02
- relative viability (Tozasertib + Foretinib; first compound 0.1265 µM): 0.879
- relative viability (Tozasertib + Vorinostat; first compound 0.004 µM): 0.448
- relative viability (Tozasertib + Vorinostat; first compound 0.01265 µM): 0.4
- relative viability (Tozasertib + Vorinostat; first compound 0.04 µM): 0.568
- relative viability (Tozasertib + Vorinostat; first compound 0.1265 µM): 0.389
- relative viability (Tozasertib + Linsitinib; first compound 0.004 µM): 0.967
- relative viability (Tozasertib + Linsitinib; first compound 0.01265 µM): 0.771
- relative viability (Tozasertib + Linsitinib; first compound 0.04 µM): 0.754
- relative viability (Tozasertib + Linsitinib; first compound 0.1265 µM): 0.513
- relative viability (Tozasertib + Bortezomib; first compound 0.004 µM): 0.663
- relative viability (Tozasertib + Bortezomib; first compound 0.01265 µM): 0.68
- relative viability (Tozasertib + Bortezomib; first compound 0.04 µM): 0.976
- relative viability (Tozasertib + Bortezomib; first compound 0.1265 µM): 0.523

Cell Line: NCI-H727
- relative viability (Tozasertib + OSI-027; first compound 0.004 µM): 0.75
- relative viability (Tozasertib + OSI-027; first compound 0.01265 µM): 0.536
- relative viability (Tozasertib + OSI-027; first compound 0.04 µM): 0.683
- relative viability (Tozasertib + OSI-027; first compound 0.1265 µM): 0.539
- relative viability (Tozasertib + Foretinib; first compound 0.004 µM): 1.02
- relative viability (Tozasertib + Foretinib; first compound 0.01265 µM): 0.984
- relative viability (Tozasertib + Foretinib; first compound 0.04 µM): 0.958
- relative viability (Tozasertib + Foretinib; first compound 0.1265 µM): 0.689
- relative viability (Tozasertib + Vorinostat; first compound 0.004 µM): 1.12
- relative viability (Tozasertib + Vorinostat; first compound 0.01265 µM): 1.12
- relative viability (Tozasertib + Vorinostat; first compound 0.04 µM): 1.13
- relative viability (Tozasertib + Vorinostat; first compound 0.1265 µM): 0.82
- relative viability (Tozasertib + Linsitinib; first compound 0.004 µM): 0.258
- relative viability (Tozasertib + Linsitinib; first compound 0.01265 µM): 0.287
- relative viability (Tozasertib + Linsitinib; first compound 0.04 µM): 0.368
- relative viability (Tozasertib + Linsitinib; first compound 0.1265 µM): 0.236
- relative viability (Tozasertib + Bortezomib; first compound 0.004 µM): 1.07
- relative viability (Tozasertib + Bortezomib; first compound 0.01265 µM): 1.04
- relative viability (Tozasertib + Bortezomib; first compound 0.04 µM): 1.02
- relative viability (Tozasertib + Bortezomib; first compound 0.1265 µM): 0.53
